Common to all, as to format: cell-based
Assay [1] concerns Ba/F3 EGFR ASV ins cells. The assay can be described thus: Cell proliferation, Ba/F3 EGFR ASV ins (CellTiter-Glo, 72 h).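 Also: IL3-independent Ba/F3 cells transduced with EGFR V769_D770insASV, cellular ATP luminescence after compound exposure, growth relative to DMSO control with the day-0 baseline reading subtracted.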 Conditions: Ba/F3 EGFR, 72 h, Ba/F3 EGFR ASV ins, 72 h proliferation; read-out: EGFR Exon20 ASV insertion GI50.
Assay [2] has as its system WT EGFR cell line A-431. Kind of assay: Cell proliferation, WT EGFR A431 (CellTiter-Glo, 72 h).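 Also: proliferation from a luminescent ATP viability signal, expressed as 100 × (treated minus time-zero plate) over (DMSO control minus time-zero plate), cells grown with 10% FBS.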 Particulars: Homo sapiens, A-431, 72 h, A431, 72 h proliferation; read-out: EGFR WT A431 GI50.
Description: (§1) WT or mutant cells were seeded in 384 well plates at appropriate concentrations with corresponding growth media supplemented with 10% FBS, for each experiment, identical plates were prepared in duplicates, and the plates were incubated overnight. On the next day, one of each duplicated plates was dosed with tested compounds at a series of concentrations, and another one of the duplicated plate was analysied for G0 value. The dosed plates were incubate for another 72 h at 37° C. with 5% CO2 and the number of viable cells in each well of the G0 plates or the dosed plates were measured by CellTiter-Glo® Luminescent Cell Viability Assay (Promega). This assay is a luminescent method for determining the number viable cells through measurement of cellular ATP concentration by detection of luciferase activity. Detection reagents (15 µl) was dispensed into per well, and the plates were incubate for 30 min at room temperature. Then, the luminescence in each well was measured using the Envision plate reader (PerkinElmer). The percentage of proliferation was calculated based on the formula: %Proliferation= 100 × (G3 value of sample well-Go value)/(G3 value of DMSO control-Go value).
The test system of assay [3] is DB cells. Kind of assay: BTK (wt) cell proliferation, DB (CellTiter-Glo, 72 h).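 Also: DB cells in 384-well plates given a dilution series of compound, viable cells read by ATP luminescence, growth expressed versus DMSO control after subtracting a time-zero plate reading.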 Conditions: Homo sapiens, DB, DB cells, CellTiter-Glo, read-out: Non-BCR activated DB GI50.
Description: OCI-LY-10 at 3,750 cells/well, TMD-8 and Ri-1 at 2,000 cells/well, and DB at 1,250 cells/well, respectively, were sorted into 384-well plates in RPMI1640 medium with 10% FBS. After overnight incubation, all cells were incubated with compound at a series of concentrations. Meanwhile, a duplicated plate of each cell line was prepared for measuring G0 value. The dosed plates were further incubated for 72 hours and the number of viable cells was measured by CellTiter-Glo® Luminescent Cell Viability Assay (Promega), a luminescent method for determining the number of viable cells through measurement of cellular ATP concentration using Envision plate reader (PerkinElmer). The percentage of proliferation was calculated as: % Proliferation = 100 × (G3 value of sample well - G0 value)/(G3 value of DMSO control - G0 value).
Assay [4] concerns NCI-H1975 EGFR L858R/T790M cells. Kind of assay: Cell proliferation, NCI-H1975 EGFR L858R/T790M (CellTiter-Glo, 72 h).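 Also: viable cells quantified by luciferase-based ATP luminescence, proliferation expressed relative to DMSO-treated wells (100%) after subtracting a parallel plate read at the time of dosing.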 Particulars: Homo sapiens, NCI-H1975, 72 h, NCI-H1975, 72 h proliferation; read-out: EGFR L858R and T790M mutation GI50.
Assay [5] has as its system Ba/F3 EGFR NPH ins cells. The assay can be described thus: Cell proliferation, Ba/F3 EGFR NPH ins (CellTiter-Glo, 72 h).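 Also: IL3-independent cells carrying constitutively phosphorylated EGFR, compound dilution series, viable cells quantified by ATP luminescence, growth relative to DMSO wells after subtracting pre-dosing (day 0) baseline.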 Conditions: Ba/F3 EGFR, 72 h, Ba/F3 EGFR NPH ins, 72 h proliferation; read-out: EGFR Exon20 NPH insertion GI50.
Description: Similar to recombinant human EGFR exon 20 H769_V770insASV Ba/F3 cell line, the recombinant human EGFR exon 20 H773_V774insNPH Ba/F3 cell line also expresses constitutively phosphorylated EGFR protein and proliferates in the absence of IL3, which could be used for in vitro PD and anti-proliferation assays.
as §1
Assay [6] addresses T1, EGFR L858R&T790M (Homo sapiens, UniProt P00533, L858R/T790M).
T1 construct: host or cells: NCI-H1975
Kind of assay: EGFR L858R and T790M cellular phosphorylation inhibition in NCI-H1975 (MSD).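 Also: phosphorylated and total EGFR detected by electrochemiluminescence, cells exposed to compound in medium containing 1% FBS at 37 °C.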 Particulars: NCI-H1975 cells, 4 h compound, p-EGFR(Y1068)/total EGFR; read-out: EGFR L858R and T790M mutation IC50.

Assay [7] relates to OCI-LY-10 cells. Kind of assay: BTK (wt) cell proliferation, OCI-LY-10 (CellTiter-Glo, 72 h).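 Also: viable cells quantified via cellular ATP luminescence, proliferation given as percent of DMSO control after subtracting a duplicate plate read at time of dosing.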 Particulars: Homo sapiens, OCI-Ly10, 72 h, OCI-LY-10 cells, 72 h, CellTiter-Glo; read-out: BTK WT OCI-LY-10 GI50.
In assay [8] the target is T2, WT EGFR (Homo sapiens, UniProt P00533).
T2 construct: host or cells: A-431
T2 sequence (P00533 25-1210): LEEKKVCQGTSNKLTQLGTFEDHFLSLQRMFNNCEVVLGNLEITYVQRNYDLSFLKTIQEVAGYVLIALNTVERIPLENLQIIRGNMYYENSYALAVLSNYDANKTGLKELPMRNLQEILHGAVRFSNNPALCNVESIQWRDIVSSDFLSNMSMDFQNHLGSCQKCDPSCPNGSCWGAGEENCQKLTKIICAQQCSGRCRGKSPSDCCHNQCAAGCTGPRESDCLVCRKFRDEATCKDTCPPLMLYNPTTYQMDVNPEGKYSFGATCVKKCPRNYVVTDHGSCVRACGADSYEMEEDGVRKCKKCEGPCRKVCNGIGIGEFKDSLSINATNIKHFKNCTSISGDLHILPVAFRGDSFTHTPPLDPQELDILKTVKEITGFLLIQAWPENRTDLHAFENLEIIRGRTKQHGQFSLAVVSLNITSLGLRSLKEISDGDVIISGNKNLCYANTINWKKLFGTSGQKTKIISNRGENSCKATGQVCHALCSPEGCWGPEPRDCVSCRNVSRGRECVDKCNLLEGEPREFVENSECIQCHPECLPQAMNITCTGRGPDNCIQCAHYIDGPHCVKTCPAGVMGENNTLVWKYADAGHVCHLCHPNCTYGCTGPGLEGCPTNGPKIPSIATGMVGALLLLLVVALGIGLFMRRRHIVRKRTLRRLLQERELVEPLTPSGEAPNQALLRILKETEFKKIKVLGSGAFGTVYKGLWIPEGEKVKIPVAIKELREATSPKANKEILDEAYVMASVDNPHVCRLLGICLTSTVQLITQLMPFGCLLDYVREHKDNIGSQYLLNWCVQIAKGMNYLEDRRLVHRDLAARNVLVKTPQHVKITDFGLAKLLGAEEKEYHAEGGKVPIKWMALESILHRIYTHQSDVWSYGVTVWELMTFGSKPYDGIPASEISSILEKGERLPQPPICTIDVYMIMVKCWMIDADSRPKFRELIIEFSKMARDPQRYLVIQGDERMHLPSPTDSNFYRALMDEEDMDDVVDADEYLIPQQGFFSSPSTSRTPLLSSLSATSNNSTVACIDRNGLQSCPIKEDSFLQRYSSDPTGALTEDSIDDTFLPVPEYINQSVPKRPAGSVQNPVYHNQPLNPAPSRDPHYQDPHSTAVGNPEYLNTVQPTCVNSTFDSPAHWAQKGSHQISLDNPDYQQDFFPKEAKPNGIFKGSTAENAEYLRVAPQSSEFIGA
Kind of assay: WT EGFR cellular phosphorylation inhibition in A-431 (hEGF stimulated, MSD).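 Also: electrochemiluminescence read-out of EGFR Tyr1068 phosphorylation expressed as ratio to total EGFR, cells kept in medium with 1% FBS, compounds tested as a concentration series.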 Particulars: A431 cells, 4 h compound, then 100 ng/ml hEGF 10 min.

Assay [9] concerns the target T3, human EGFR exon 20 H773_V774insNPH (Homo sapiens, UniProt P00533, INS773NPH).
T3 construct: host or cells: Ba/F3
Kind of assay: EGFR Exon20 NPH insertion cellular phosphorylation inhibition (MSD pEGFR Y1068/total EGFR).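 Also: IL3-independent Ba/F3 cells with constitutively phosphorylated EGFR, compound exposure at 37 °C under 5% CO2, electrochemiluminescent MSD measurement of the p-EGFR to total EGFR ratio.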 Particulars: Ba/F3 EGFR NPH ins cells, 4 h compound, p-EGFR(Y1068)/total EGFR.

For assay [10], the system named is TMD-8 cells. Kind of assay: BTK (wt) cell proliferation, TMD-8 (CellTiter-Glo, 72 h).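 Also: viable cells quantified by ATP-based luminescence, proliferation expressed as percent of DMSO control after subtracting a time-zero baseline plate read at dosing.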 Conditions: Homo sapiens, TMD8, 72 h, TMD-8 cells, 72 h, CellTiter-Glo; read-out: BTK WT TMD-8 GI50.
Assay [11] addresses T4, human Her2 exon 20 insertion mutation YVMA (Homo sapiens, UniProt P04626, INS775YVMA).
T4 construct: expressed in transfected cells; host or cells: NIH-3T3, lentiviral transduction, puromycin selection
Kind of assay: Her2 Exon 20 YVMA insertion cellular phosphorylation inhibition (MSD p-Her2 Y1248/total Her2).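 Also: lentivirally transduced NIH-3T3 cells in 1% FBS medium, electrochemiluminescent MSD read-out, graded compound concentrations at 37 °C.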 Conditions: Her2 YVMAins cells, 4 h compound.
Description: The resulting cell line expressed phosphorylated Her2 protein and its proliferation depended on the mutation gene, which could be used for in vitro PD and anti-proliferation assays.
One day before the test, WT or mutant cells were seeded in 96 well plates at appropriate concentrations with corresponding growth media supplemented with 1% FBS, and incubated overnight. The next day, tested compounds at a series of concentrations were added into each individual well of the plates, and the plates were incubated for 4 h at 37° C. with 5% CO2.
The EGFR (Y1068) phosphorylation level (activity) of cells in each well were then measured with MSD kit named “MULTI-SPOT®96 4-Spot HB Prototype EGFR Triplex [sequence]: pEGFR(Tyr1068),pEGFR(Tyr1173), Total EGFR” according to the manufacturer’s instruction (MESO SCALE DISCOVERY, Cat# N45ZB-1). The assay is an electrochemiluminescent method for determining both phosphorylated and total EGFR of cells with an MSD SECTOR® Imager and the ratio of p-EGFR/total EGFR can be generated by the machine. The Her2 (Y1248) phosphorylation level (activity) of cells in each well were measured with MSD Kit named “Phospho-ErbB2 (Tyr1248) Assay Whole Cell Lysate Kit” according to the manufacturer’s instruction (MESO SCALE DISCOVERY, Cat# K151CLD-3). The assay is an electrochemiluminescent method (MESO SCALE DISCOVERY) for determining both phosphorylated and total Her2 of cells with an MSD SECTOR® Imager and then the ratio of p-Her2/total Her2 can be generated by the machine.

For assay [12], the system named is Ri-1 cells. Kind of assay: BTK (wt) cell proliferation, Ri-1 (CellTiter-Glo, 72 h).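 Also: viable cells quantified as cellular ATP luminescence, proliferation normalized to a time-zero plate and the DMSO control, compounds tested across a dilution series.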 Conditions: Ri-1, 72 h, Ri-1 cells, 72 h, CellTiter-Glo; read-out: BTK WT Ri-1 GI50.
Assay [13] has as its system Her2 exon 20 insertion YVMA transduced NIH-3T3 cell line. The assay can be described thus: Cell proliferation, Her2 YVMAins NIH-3T3 (CellTiter-Glo, 72 h).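 Also: viable cells quantified by ATP luminescence, growth over a day-zero baseline plate expressed as percent of DMSO control growth, compound dilution series in 10% FBS medium.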 Particulars: Mus musculus, NIH3T3, 72 h, Her2 YVMAins cells, 72 h proliferation; read-out: Her2 Exon 20 YVMA insertion GI50.
The target of assay [14] is T5, human EGFR exon 20 V769_D770insASV (Homo sapiens, UniProt P00533, INS769ASV).
T5 construct: expressed in transfected cells; host or cells: Ba/F3 (DSMZ ACC-300), lentiviral transduction, puromycin selection, IL3 depletion
Kind of assay: EGFR Exon20 ASV insertion cellular phosphorylation inhibition (MSD pEGFR Y1068/total EGFR).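 Also: electrochemiluminescent readout on an MSD SECTOR Imager, IL3-independent transduced cells in medium with 1% FBS, compound concentration series at 37 °C and 5% CO2.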 Conditions: Ba/F3 EGFR ASV ins cells, 4 h compound, p-EGFR(Y1068)/total EGFR.

This passage reports GI50 and IC50 results from patent US20230293535A1, “ERBB/BTK INHIBITORS” (Dizal (Jiangsu) Pharmaceutical Co., Ltd., priority 2018, published 2023).

SMILES strings stand for the structures. Some results are limits rather than exact numbers.

T3 sequence (P00533 with tags, fused parts or gaps INS773NPH): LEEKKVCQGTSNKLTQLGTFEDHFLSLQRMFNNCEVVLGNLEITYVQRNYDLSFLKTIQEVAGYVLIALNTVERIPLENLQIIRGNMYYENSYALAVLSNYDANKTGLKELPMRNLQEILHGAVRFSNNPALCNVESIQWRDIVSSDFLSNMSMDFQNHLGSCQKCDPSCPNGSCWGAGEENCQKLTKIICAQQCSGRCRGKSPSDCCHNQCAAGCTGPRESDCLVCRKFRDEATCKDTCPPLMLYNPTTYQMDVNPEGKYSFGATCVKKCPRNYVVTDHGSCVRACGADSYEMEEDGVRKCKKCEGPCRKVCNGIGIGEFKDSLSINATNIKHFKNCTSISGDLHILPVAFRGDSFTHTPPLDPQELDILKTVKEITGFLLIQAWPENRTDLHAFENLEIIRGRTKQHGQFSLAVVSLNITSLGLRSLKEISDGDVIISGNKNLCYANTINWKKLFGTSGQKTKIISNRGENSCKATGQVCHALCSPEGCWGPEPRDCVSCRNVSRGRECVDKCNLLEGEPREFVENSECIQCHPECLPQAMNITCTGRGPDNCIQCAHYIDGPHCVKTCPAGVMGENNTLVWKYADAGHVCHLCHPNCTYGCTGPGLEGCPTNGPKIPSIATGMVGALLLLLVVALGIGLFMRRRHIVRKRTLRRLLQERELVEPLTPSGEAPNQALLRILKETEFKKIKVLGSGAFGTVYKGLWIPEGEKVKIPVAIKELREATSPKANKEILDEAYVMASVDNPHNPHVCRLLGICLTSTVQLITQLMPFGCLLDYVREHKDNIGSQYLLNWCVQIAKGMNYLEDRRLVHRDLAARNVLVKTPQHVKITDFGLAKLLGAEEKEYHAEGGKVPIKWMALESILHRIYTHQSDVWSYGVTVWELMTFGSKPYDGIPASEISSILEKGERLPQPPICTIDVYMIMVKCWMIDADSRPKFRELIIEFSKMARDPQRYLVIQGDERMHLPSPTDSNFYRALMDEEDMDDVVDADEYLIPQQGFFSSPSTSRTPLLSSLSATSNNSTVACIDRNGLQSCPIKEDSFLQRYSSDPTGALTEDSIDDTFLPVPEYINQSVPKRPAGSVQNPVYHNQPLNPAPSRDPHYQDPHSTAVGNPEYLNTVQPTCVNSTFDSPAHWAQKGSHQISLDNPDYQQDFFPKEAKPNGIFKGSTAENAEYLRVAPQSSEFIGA
T1 sequence (P00533 25-1210 T790M/L858R): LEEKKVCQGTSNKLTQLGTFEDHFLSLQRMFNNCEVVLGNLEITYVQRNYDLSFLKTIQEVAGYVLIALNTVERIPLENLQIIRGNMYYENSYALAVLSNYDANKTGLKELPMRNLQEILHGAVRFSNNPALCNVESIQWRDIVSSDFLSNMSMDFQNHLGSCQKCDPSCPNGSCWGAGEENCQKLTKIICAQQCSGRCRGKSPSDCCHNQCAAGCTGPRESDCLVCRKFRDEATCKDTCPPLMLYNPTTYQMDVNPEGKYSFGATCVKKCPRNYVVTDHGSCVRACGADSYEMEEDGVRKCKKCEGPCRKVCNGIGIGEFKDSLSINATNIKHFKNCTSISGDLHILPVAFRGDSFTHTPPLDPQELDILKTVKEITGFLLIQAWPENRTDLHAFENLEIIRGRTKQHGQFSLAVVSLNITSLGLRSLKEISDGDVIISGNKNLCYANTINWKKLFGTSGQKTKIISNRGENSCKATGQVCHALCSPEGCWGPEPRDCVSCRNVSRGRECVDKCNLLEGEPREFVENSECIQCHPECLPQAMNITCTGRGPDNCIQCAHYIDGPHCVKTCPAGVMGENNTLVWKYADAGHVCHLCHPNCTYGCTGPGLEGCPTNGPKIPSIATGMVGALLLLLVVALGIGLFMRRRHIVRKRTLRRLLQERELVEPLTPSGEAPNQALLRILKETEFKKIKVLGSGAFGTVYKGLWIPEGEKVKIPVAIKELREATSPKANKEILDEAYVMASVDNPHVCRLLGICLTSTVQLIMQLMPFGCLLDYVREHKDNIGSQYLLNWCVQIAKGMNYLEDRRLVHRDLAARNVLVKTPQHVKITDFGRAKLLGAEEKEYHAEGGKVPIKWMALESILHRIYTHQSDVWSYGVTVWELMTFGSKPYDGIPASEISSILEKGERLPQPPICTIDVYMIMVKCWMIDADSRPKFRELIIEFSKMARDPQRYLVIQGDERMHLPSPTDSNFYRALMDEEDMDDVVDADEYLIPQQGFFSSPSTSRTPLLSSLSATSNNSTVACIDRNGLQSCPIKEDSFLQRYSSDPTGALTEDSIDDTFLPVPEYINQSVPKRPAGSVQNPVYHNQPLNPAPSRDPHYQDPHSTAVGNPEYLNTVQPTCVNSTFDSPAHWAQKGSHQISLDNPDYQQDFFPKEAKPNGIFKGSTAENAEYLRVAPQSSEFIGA
T4 sequence (P04626 with tags, fused parts or gaps INS775YVMA): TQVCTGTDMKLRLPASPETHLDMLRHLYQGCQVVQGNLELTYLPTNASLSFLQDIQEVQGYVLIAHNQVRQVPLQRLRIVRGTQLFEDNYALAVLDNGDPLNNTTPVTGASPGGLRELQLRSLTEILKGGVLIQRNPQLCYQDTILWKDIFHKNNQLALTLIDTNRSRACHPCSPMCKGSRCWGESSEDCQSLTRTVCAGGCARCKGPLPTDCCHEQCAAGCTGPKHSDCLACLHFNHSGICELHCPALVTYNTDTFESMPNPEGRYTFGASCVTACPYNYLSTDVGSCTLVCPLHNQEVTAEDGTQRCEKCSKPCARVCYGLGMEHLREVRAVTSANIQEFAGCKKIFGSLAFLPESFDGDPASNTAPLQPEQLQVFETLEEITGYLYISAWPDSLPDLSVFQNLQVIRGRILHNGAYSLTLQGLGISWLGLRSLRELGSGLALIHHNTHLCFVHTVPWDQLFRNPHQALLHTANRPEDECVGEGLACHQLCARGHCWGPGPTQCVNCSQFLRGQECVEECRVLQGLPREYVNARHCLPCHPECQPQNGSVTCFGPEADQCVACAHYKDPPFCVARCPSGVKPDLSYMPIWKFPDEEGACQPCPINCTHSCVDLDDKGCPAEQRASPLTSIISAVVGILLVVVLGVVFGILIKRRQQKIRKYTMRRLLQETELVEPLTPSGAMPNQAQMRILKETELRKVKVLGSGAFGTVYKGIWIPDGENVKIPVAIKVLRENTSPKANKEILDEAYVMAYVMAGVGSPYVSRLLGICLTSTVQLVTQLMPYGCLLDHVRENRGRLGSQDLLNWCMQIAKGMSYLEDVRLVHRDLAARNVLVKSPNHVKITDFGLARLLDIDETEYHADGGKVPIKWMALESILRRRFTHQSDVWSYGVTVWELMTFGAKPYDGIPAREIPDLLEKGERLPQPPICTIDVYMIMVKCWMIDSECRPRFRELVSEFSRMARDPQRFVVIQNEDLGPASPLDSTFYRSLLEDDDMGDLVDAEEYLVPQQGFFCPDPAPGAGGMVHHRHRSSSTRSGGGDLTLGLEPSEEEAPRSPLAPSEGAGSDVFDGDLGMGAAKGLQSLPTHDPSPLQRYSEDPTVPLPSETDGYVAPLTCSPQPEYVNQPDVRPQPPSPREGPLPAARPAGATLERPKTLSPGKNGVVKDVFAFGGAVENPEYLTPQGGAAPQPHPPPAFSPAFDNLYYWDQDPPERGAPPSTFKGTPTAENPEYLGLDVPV

In the case of `C=CC(=O)Nc1cc(Nc2ncnc(Nc3cc(F)c(F)cc3C(C)(O)CC)n2)c(OC)cc1N(C)CCN(C)C` (stereo not shown) [Compound 49, N-(5-(4-(4,5-difluoro-2-(2-hydroxybutan-2-yl)phenylamino)-1,3,5-triazin-2-ylamino)-2-((2-(dimethylamino)ethyl)(methyl)amino)-4-methoxyphenyl)acr ylamide], the GI50 in assay [1] was 31.9 nM; in assay [2], 15.3 nM; in assay [3], more than 3000 nM; in [4], 1.5 nM; in assay [5], 31.6 nM; in assay [7], 1250 nM. Besides, the values for the GI50 in assay [10], in assay [12] and in [13] were 107 nM, 566 nM and 36.1 nM, respectively. The IC50 amounted to 0.5 nM in [6]; 22.8 nM in assay [8]; 19.6 nM in assay [9]; 6.2 nM in assay [11]; 9.6 nM in [14].

On to `C=CC(=O)Nc1cc(Nc2nccc(Nc3cc(Cl)c(F)cc3C(C)(C)O)n2)c(OC)cc1N1CC(F)(F)C[C@@H]1CN(C)C` [Compound 82, (R)-N-(5-(4-(5-chloro-4-fluoro-2-(2-hydroxypropan-2-yl)phenylamino)pyrimidin-2-ylamino)-2-(2-((dimethylamino)methyl)-4,4-difluoropyrrolidin-1-yl)-4-methoxyphenyl)acrylamide], for which the GI50 in [1] is 77.7 nM; in [2], 42 nM; in [3], more than 3000 nM; in assay [4], 3.6 nM; in assay [5] it was 35.8 nM; in assay [7], 76.1 nM. In addition, the results for the GI50 in [10], in assay [12] and in assay [13] were 203 nM, 310 nM and 82.4 nM, respectively. Further, the IC50 in assay [6] amounted to 0.9 nM; in [8], 97.8 nM; in assay [9], 13.8 nM; in assay [11] it was 7 nM; in assay [14], 17.2 nM.

`C=CC(=O)Nc1cc(Nc2ncnc(Nc3cc(F)c(F)cc3C(C)(C)O)n2)c(OC)cc1N1CC[C@@H]2CN(C)C[C@@H]21` [Compound 17, N-(5-(4-(4,5-difluoro-2-(2-hydroxypropan-2-yl)phenylamino)-1,3,5-triazin-2-ylamino)-4-methoxy-2-((3aR,6aR)-5-methylhexahydropyrrolo[3,4-b]pyrrol-1(2H)-yl)phenyl) acrylamide]: the GI50 was 19.6 nM in assay [1]; 13.2 nM in assay [2]; more than 3000 nM in assay [3]; 3.7 nM in [4]; 25 nM in assay [5]; 41.5 nM in assay [7]. The GI50 in [10] was determined as 53.7 nM; in [12], 28 nM; in assay [13], 37.7 nM. In addition, the IC50 is 0.3 nM in assay [6]; 13.5 nM in [8]; 13 nM in [9]; 6.1 nM in assay [11]; 7.8 nM in assay [14].

Regarding `C=CC(=O)Nc1cc(Nc2ncnc(Nc3cc(F)c(Cl)cc3C(C)(C)O)n2)c(OC)cc1N1CC[C@@H]1CN(C)C` [Compound 62, (R)-N-(5-(4-(4-chloro-5-fluoro-2-(2-hydroxypropan-2-yl)phenylamino)-1,3,5-triazin-2-ylamino)-2-(2-((dimethylamino)methyl)azetidin-1-yl)-4-methoxyphenyl)acrylamide], the GI50 in assay [1] is 34.8 nM; in assay [2], 13.3 nM; in assay [3] it was more than 3000 nM; in assay [4], 3.2 nM; in assay [5], 45.8 nM; in [7], 5.3 nM. Besides, the GI50 in [10] worked out at 3.79 nM; in [12], 84 nM; in assay [13] it was 114 nM. For the same compound, the IC50 worked out at 0.5 nM in assay [6]; 27.4 nM in assay [8]; 19.3 nM in [9]; 11.4 nM in assay [11]; 10.7 nM in assay [14].

For the compound `C=CC(=O)Nc1cc(Nc2ncnc(Nc3cnc(F)cc3C(C)(C)O)n2)c(OC)cc1N(C)CCN(C)C` [Compound 3, N-(2-((2-(dimethylamino)ethyl)(methyl)amino)-5-(4-(6-fluoro-4-(2-hydroxypropan-2-yl)pyridin-3-ylamino)-1,3,5-triazin-2-ylamino)-4-methoxyphenyl) acrylamide], the GI50 in assay [1] was 252 nM; in assay [2] it was 69.3 nM; in assay [3], more than 3000 nM; in [4], 55.6 nM; in [5], 307 nM; in [7], 2510 nM. The GI50 was 635 nM in [10], more than 3000 nM in assay [12] and 183 nM in assay [13]. Moreover, the IC50 in assay [6] is 3.1 nM; in assay [8], 103 nM; in assay [9] it was 296 nM; in [11], 51.2 nM; in assay [14] it was 92.4 nM.

With `C=CC(=O)Nc1cc(Nc2ncnc(Nc3cccnc3C(C)(C)O)n2)c(OC)cc1N(C)CCN(C)C` [Compound 8, N-(2-((2-(dimethylamino)ethyl)(methyl)amino)-5-(4-(2-(2-hydroxypropan-2-yl)pyridin-3-ylamino)-1,3,5-triazin-2-ylamino)-4-methoxyphenyl)acrylamide], the GI50 was 250 nM in [1]; 99.8 nM in [2]; more than 3000 nM in [3]; 32.4 nM in assay [4]; 258 nM in [5]; 88 nM in [7]. Besides, the GI50 in [10] was 1780 nM; in assay [12] it was more than 3000 nM; in assay [13] it was 353 nM. Besides, the IC50 is 2.9 nM in [6]; 43.1 nM in assay [8]; 91.1 nM in [9]; 25.7 nM in assay [11]; 117 nM in assay [14].

As to `C=CC(=O)Nc1cc(Nc2ncnc(Nc3cc(F)c(F)cc3C(C)(C)O)n2)c(OC)cc1N(C)CCN1CCCC1` [Compound 18], the GI50 is 91.3 nM in assay [1]; 42.8 nM in [2]; more than 3000 nM in assay [3]; 10.9 nM in assay [4]; 93.6 nM in assay [5]; 276 nM in assay [7]. Moreover, the GI50 in [10] was determined as 81.7 nM; in assay [12], 446 nM; in assay [13] it was 136 nM. Further, the IC50 in assay [6] turned out to be 1.1 nM; in assay [8] it was 58.9 nM; in assay [9], 61.1 nM; in assay [11], 22.1 nM; in assay [14], 42.4 nM.

Turning to `C=CC(=O)Nc1cc(Nc2ncnc(Nc3cc(Cl)c(F)cc3C(C)(C)O)n2)c(OC)cc1N(C)CCN1CCCCC1` [Compound 26, N-(5-(4-(5-chloro-4-fluoro-2-(2-hydroxypropan-2-yl)phenylamino)-1,3,5-triazin-2-ylamino)-4-methoxy-2-(methyl(2-(piperidin-1-yl)ethyl)amino)phenyl)acrylamide], the GI50 in assay [1] is 99.5 nM; in assay [2] it was 57.8 nM; in assay [3], more than 3000 nM; in assay [4], 32.4 nM; in assay [5], 123 nM; in [7], 45.3 nM. The 50% growth inhibitory concentration (GI50) in [10] stood at 12.6 nM; in assay [12], 50.5 nM; in assay [13] it was 253 nM. For the same compound, the IC50 was found to be 1.3 nM in [6]; 103 nM in assay [8]; 43.5 nM in assay [9]; 9.5 nM in [11]; 40.5 nM in [14].
